According to article PMC8162404, “Proteomimetic surface fragments distinguish targets by function” (Chemical Science, 2020):

What was measured:
S100A4 = target: T1, S100A4 (Homo sapiens, UniProt P26447); assay: Pull-down assay with immobilized protein and LSM libraries; assay type: binding; details: for Kd: H14 library, 1:1 binding assumed, read-out: Surface mapping KD (apparent)
T1 construct: made in house; host or cells: Escherichia coli BL21(DE3)
Procedure, shortened: (§1)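 Buffers were HEPES pH 7.4 with 150 mM NaCl, plus 1 mM TCEP and 1 mM CaCl2 (50 mM HEPES) for S100A4 and S100B, 1 mM TCEP for Gal-1, and no additive for RecQ-WH. Immobilized protein at 64 µM was equilibrated 30 min with the LSM sublibrary, and unbound probes were measured by LC-MS.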

Gal-1 [1] = target: T2, Gal-1 (Homo sapiens, UniProt P09382); assay: as above; assay type: binding; details: H14 library; 1:1 binding assumed; read-out: Surface mapping KD (apparent)
T2 construct: made in house; host or cells: E. coli BL21(DE3)
T2 sequence (P09382 whole entry): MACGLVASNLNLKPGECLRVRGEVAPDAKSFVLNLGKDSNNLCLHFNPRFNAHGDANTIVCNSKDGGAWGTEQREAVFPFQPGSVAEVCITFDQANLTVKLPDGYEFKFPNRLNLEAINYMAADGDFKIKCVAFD
Procedure, shortened: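 His-tagged protein immobilized on Co-NTA resin (64 µM) in 20 mM HEPES pH 7.4, 150 mM NaCl, equilibrated 30 min at room temperature with foldamer LSM sublibraries at equimolar total concentration. Unbound fractions quantified by HPLC-MS versus protein-free resin control; apparent KD assumes 1:1 binding.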

S100B [2] = target: T3, S100B (Homo sapiens, UniProt P04271); assay: as above; assay type: binding; details: for Kd: H14 library, 1:1 binding assumed, read-out: Surface mapping KD (apparent)
T3 construct: made in house; host or cells: Escherichia coli BL21(DE3)
T3 sequence (P04271 1-92): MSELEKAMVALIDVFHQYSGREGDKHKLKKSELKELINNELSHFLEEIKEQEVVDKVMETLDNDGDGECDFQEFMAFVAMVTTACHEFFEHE
Procedure, shortened: as §1

S100B [3] = target: T3, S100B; assay: Competition pull-down with native ligand RSK1 (689–735); assay type: binding; details: H14 library; competitor peptide 200 µM; read-out: Surface mapping KD (apparent), competition
Gal-1 [4] = target: T2, Gal-1; assay: Competition pull-down with lactose; assay type: binding; details: H14 library; lactose 10 mM; read-out: Surface mapping KD (apparent), competition
Procedure, shortened: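 His6-tagged proteins immobilized on Co-NTA resin at 64 µM final with 64-member LSM foldamer sublibraries (1 M each, as printed) in pH 7.4 HEPES/NaCl buffers (Ca2+/TCEP per target), 30 min RT; competitor peptides 200 µM final, lactose 10 mM for Gal-1. Bound fractions from LC-MS loss vs protein-free resin; KD assuming 1:1 binding.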

CaM [5] = target: T4, CaM (Bos taurus, UniProt P62157); assay: Pull-down assay with immobilized protein and LSM libraries; assay type: binding, bovine; details: H14 library; 1:2 stoichiometry assumed; read-out: Surface mapping KD (apparent)
T4 construct: made in house; host or cells: E. coli BL21 (DE3)
Procedure, shortened: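 His-tagged protein immobilized on Co-NTA resin, equilibrated 30 min at room temperature with LSM sublibraries (64 members, […]), equimolar protein to total probe. CaM buffer: 20 mM HEPES pH 7.4, 150 mM NaCl, 5 mM CaCl2. Bound fractions from HPLC-MS loss of unbound probe versus protein-free resin control; Kd derived.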

RecQ-WH = target: T5, RecQ-WH (Escherichia coli, UniProt P15043); assay: as above; set-up: species or system E. coli; details: H14 library; 1:1 binding assumed; read-out: Surface mapping KD (apparent)
T5 construct: coding for residues 408– 523 of E. coli RecQ; made in house; host or cells: E. coli BL21(DE3)
T5 sequence (P15043 408-523): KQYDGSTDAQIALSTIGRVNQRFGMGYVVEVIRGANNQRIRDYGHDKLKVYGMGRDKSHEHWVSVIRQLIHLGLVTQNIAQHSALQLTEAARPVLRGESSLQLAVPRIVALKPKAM
Procedure: Pull-down assays with immobilized test proteins and foldameric LSM libraries were carried out. Proteins were equilibrated with LSM probes, and equilibrium bound fractions (FB) were determined from the unbound fractions measured by HPLC-MS methods. Hits were corrected with background binding of the resin. The protocol allowed all binding events to equilibrate irrespective of affinity, specificity, and binding kinetics. This was essential to judge overall druggability and promiscuity. Importantly, the concentration of protein and the total concentration of foldameric LSMs were equimolar, which minimized competition between the probes. This experimental setup approximated independent binding of individual library members. Results were visualized as heat maps of dissociation constants (Fig. 3).
Pull-down assay and data analysis
Pull-down assay. LSM sublibraries were screened separately as previously described.(2) Experiments were performed in the following buffers: (i) 20 mM pH 7.4 HEPES, 150 mM NaCl, 5 mM CaCl2 for CaM; (ii) 50 mM pH 7.4 HEPES, 150 mM NaCl, 1 mM TCEP, 1 mM CaCl2 for S100 proteins; (iii) 20 mM pH 7.4 HEPES, 150 mM NaCl, 1 mM TCEP for Gal-1 and (iv) 20 mM pH 7.4 HEPES, 150 mM NaCl for RecQ-WH. Assays were performed in paper filter spin cups (Thermo Scientific) with sample volumes of 100 µl. Hexahistidine-tagged proteins were immobilized on previously washed Co-NTA resin (TALON, Takara Bio USA, Inc., Mountain View, CA) in 64 µM final concentration. LSM sublibrary was added, in which each of the 64 library members were used at a concentration of 1 µM. Samples were incubated at room temperature for 30 min with shaking at 100 rpm. Then, samples were centrifuged at 1000 rpm for 2 min and washed with 100 µl pull-down buffer to remove unbound compounds.
The control experiments were performed using the same compounds and the resin but without the immobilized protein. In case of competitive assays, competitor peptides were added to LSM sublibrary samples in 200 µM final concentration. In the case of Gal-1, lactose (competitor) was used in a concentration of 10 mM. Experiments were performed at least twice. Mean […]
LC-MS methods and parameters. HPLC/ESI-MS analysis was used to characterize the samples from the pull-down assay. LC-MS analysis was performed with a Thermo Scientific Dionex UltiMate 3000 HPLC system interfaced to an LTQ ion trap mass spectrometer (Thermo Electron Corp., San Jose, CA, USA). Samples were injected onto an Aeris Widepore XB-C18 (250 x 4.6 mm) analytical HPLC column using gradient elution 5-80 % solution B during 25 minutes. For pull-down samples, eluent composition was 0.1% acetic acid in distilled water (Solution A) and 0.1% acetic acid in acetonitrile (solution B). Mass spectra were acquired in full scan mode from 200 to 2000 m/z range. For overlapping peaks, selective reaction monitoring (SRM) was […]
MS data analysis. Thermo Xcalibur 2.2 software was used for peak identification and integration. The majority of the foldameric fragments could be resolved independently via HPLC-MS/MS measurements based on molecular weight, MS fragmentation pattern and retention time. Peaks of some foldamers with β3-hIle or β3-hLeu in position R2 could not be resolved, these were integrated and averaged. In the processing method, each sample component was associated to a chromatographic peak based on previously identified mass (m/z) and retention time (ref (2) and Table S7-10). Using ICIS peak detection algorithm, the general detection and integration criteria were: smoothing points: 5, baseline window: 80, area noise factor: 5, peak noise factor: 10. Using these processing setups, all raw data files were reprocessed together and analyzed. Errors in peak identification during the automatic processing were corrected manually.
Calculation of the discussed parameters
1. Bound fractions (FB.) were calculated from the HPLC-MS intensity loss of the LSM probes compared to the control where no protein was immobilized to the resin: […]

CaM [6] = target: T4, CaM; assay: Competition pull-down with native ligand TRPV1-Ct15; assay type: binding, bovine; details: H14 library; competitor peptide 200 µM; read-out: Surface mapping KD (apparent), competition
[7] = H14 probes selected for validation

T1 sequence (P26447 whole entry): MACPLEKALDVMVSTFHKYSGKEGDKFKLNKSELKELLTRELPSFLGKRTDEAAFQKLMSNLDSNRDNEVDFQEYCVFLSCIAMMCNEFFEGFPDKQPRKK

Row | Structure (SMILES) | Kd (S100A4) | Kd (Gal-1 [1]) | Kd (S100B [2]) | Kd (S100B [3]) | Kd (Gal-1 [4]) | Kd (CaM [5]) | Kd (RecQ-WH) | Kd (CaM [6]) | Binding (S100A4; H14 probes) | Affinity class of probe (high, medium, low) in pull-down (S100A4; [7]) | Binding (S100B [2]; H14 probes) | Affinity class of probe (high, medium, low) in pull-down (S100B [2]; [7])
1 | CC(C)C[C@@H](CC(=O)N[C@H]1CCCC[C@@H]1C(N)=O)NC(=O)[C@H]1CCCC[C@@H]1NC(=O)[C@H]1CCCC[C@@H]1NC(=O)C[C@H](C)NC(=O)[C@H]1CCCC[C@@H]1N [H14 AL] | 7 µM | 127 µM | 108 µM | 313 µM | 272 µM | 13 µM | 401 µM |  |  |  |  | 
2 | NC(=O)[C@H]1CCCC[C@@H]1NC(=O)C[C@H](Cc1ccccc1)NC(=O)[C@H]1CCCC[C@@H]1NC(=O)[C@H]1CCCC[C@@H]1NC(=O)C[C@H](CCC(=O)O)NC(=O)[C@H]1CCCC[C@@H]1N [H14 EF] |  |  | 476 µM | 126 µM | 430 µM |  | 241 µM |  |  |  |  | 
3 | NCCCC[C@@H](CC(=O)N[C@H]1CCCC[C@@H]1C(N)=O)NC(=O)[C@H]1CCCC[C@@H]1NC(=O)[C@H]1CCCC[C@@H]1NC(=O)C[C@H](Cc1ccccc1)NC(=O)[C@H]1CCCC[C@@H]1N [H14 FK] | 141 µM | 154 µM | 63 µM | 391 µM | 153 µM | 4 µM | 424 µM |  |  |  |  | 
4 | NC(=O)[C@H]1CCCC[C@@H]1NC(=O)C[C@H](CO)NC(=O)[C@H]1CCCC[C@@H]1NC(=O)[C@H]1CCCC[C@@H]1NC(=O)C[C@H](Cc1ccccc1)NC(=O)[C@H]1CCCC[C@@H]1N [H14 FS] | 111 µM |  | 364 µM | 429 µM |  | 15 µM | 303 µM |  |  |  |  | 
5 | C[C@@H](O)[C@@H](CC(=O)N[C@H]1CCCC[C@@H]1C(N)=O)NC(=O)[C@H]1CCCC[C@@H]1NC(=O)[C@H]1CCCC[C@@H]1NC(=O)C[C@H](Cc1ccccc1)NC(=O)[C@H]1CCCC[C@@H]1N [H14 FT] | 135 µM | 348 µM | 274 µM | 333 µM |  | 11 µM | 218 µM |  |  |  |  | 
6 | CC[C@H](C)[C@@H](CC(=O)N[C@H]1CCCC[C@@H]1C(=O)N[C@H]1CCCC[C@@H]1C(=O)N[C@H](CC(=O)N[C@H]1CCCC[C@@H]1C(N)=O)Cc1ccc(O)cc1)NC(=O)[C@H]1CCCC[C@@H]1N [H14 IY] | 20 µM | 258 µM | 74 µM | 156 µM |  | 15 µM | 300 µM |  |  |  |  | 
7 | CSCC[C@@H](CC(=O)N[C@H]1CCCC[C@@H]1C(N)=O)NC(=O)[C@H]1CCCC[C@@H]1NC(=O)[C@H]1CCCC[C@@H]1NC(=O)C[C@H](CCCCN)NC(=O)[C@H]1CCCC[C@@H]1N [H14 KM] | 95 µM |  | 119 µM | 140 µM |  | 63 µM | 459 µM | 146 µM |  |  |  | 
8 | CSCC[C@@H](CC(=O)N[C@H]1CCCC[C@@H]1C(=O)N[C@H]1CCCC[C@@H]1C(=O)N[C@H](CC(=O)N[C@H]1CCCC[C@@H]1C(N)=O)C(C)C)NC(=O)[C@H]1CCCC[C@@H]1N [H14 MV] | 21 µM | 178 µM | 118 µM | 360 µM | 218 µM | 3 µM | 294 µM |  |  |  |  | 
9 | N=C(N)NCCC[C@@H](CC(=O)N[C@H]1CCCC[C@@H]1C(=O)N[C@H]1CCCC[C@@H]1C(=O)N[C@@H](CCCCN)CC(=O)N[C@H]1CCCC[C@@H]1C(N)=O)NC(=O)[C@H]1CCCC[C@@H]1N [H14 RK] |  |  | 22 µM |  | 323 µM | 22 µM | 486 µM | 249 µM |  |  |  | 
10 | C[C@@H](O)[C@@H](CC(=O)N[C@H]1CCCC[C@@H]1C(=O)N[C@H]1CCCC[C@@H]1C(=O)N[C@H](CC(=O)N[C@H]1CCCC[C@@H]1C(N)=O)Cc1c[nH]c2ccccc12)NC(=O)[C@H]1CCCC[C@@H]1N [H14 TW] | 189 µM | 143 µM | 47 µM | 258 µM | 147 µM | 16 µM | 288 µM |  | does not | low | binds | medium
11 | CC(C)[C@@H](CC(=O)N[C@H]1CCCC[C@@H]1C(=O)N[C@H]1CCCC[C@@H]1C(=O)N[C@H](CC(=O)N[C@H]1CCCC[C@@H]1C(N)=O)Cc1ccc(O)cc1)NC(=O)[C@H]1CCCC[C@@H]1N [H14 VY] | 50 µM | 318 µM | 110 µM | 167 µM |  | 30 µM | 115 µM |  |  |  |  | 
12 | C[C@@H](CC(=O)N[C@H]1CCCC[C@@H]1C(N)=O)NC(=O)[C@H]1CCCC[C@@H]1NC(=O)[C@H]1CCCC[C@@H]1NC(=O)C[C@H](Cc1c[nH]c2ccccc12)NC(=O)[C@H]1CCCC[C@@H]1N [H14 WA] | 55 µM |  | 58 µM | 220 µM |  | 3 µM | 293 µM | 307 µM |  |  |  | 
13 | C[C@@H](CC(=O)N[C@H]1CCCC[C@@H]1C(N)=O)NC(=O)[C@H]1CCCC[C@@H]1NC(=O)[C@H]1CCCC[C@@H]1NC(=O)C[C@H](Cc1ccc(O)cc1)NC(=O)[C@H]1CCCC[C@@H]1N [H14 YA] | 217 µM | 342 µM |  | 436 µM |  | 15 µM | 329 µM | 366 µM |  |  |  | 
14 | N=C(N)NCCC[C@@H](CC(=O)N[C@H]1CCCC[C@@H]1C(N)=O)NC(=O)[C@H]1CCCC[C@@H]1NC(=O)[C@H]1CCCC[C@@H]1NC(=O)C[C@H](Cc1ccc(O)cc1)NC(=O)[C@H]1CCCC[C@@H]1N [H14 YR] | 117 µM | 377 µM | 67 µM |  | 309 µM | 11 µM | 421 µM | 117 µM |  |  |  | 
